Reference: patent publication US11147796B2, “Agent for preventing or ameliorating hearing impairment” (Tohoku University, priority 2017, dated 2021)

Row | melting point | SMILES
1 | 203 to 204 °C | O=C(CC(C(=O)O)c1c[nH]c2cccc(Cl)c12)c1ccc(F)cc1F (centres unmarked) [Compound (2-1), 2-(4-chloro-1H-indol-3-yl)-4-(2,4-difluorophenyl)-4-oxo-butanoic Acid]
2 | 207 to 208 °C | O=C(CC(C(=O)O)c1c[nH]c2ccc(F)cc12)c1ccc(F)cc1F (centres unmarked) [Compound (3-1), 4-(2,4-difluorophenyl)-2-(5-fluoro-1H-indol-3-yl)-4-oxo-butanoic Acid]
3 | 236 to 239 °C | O=C(CC(C(=O)O)c1c[nH]c2ccc(Cl)cc12)c1ccc(F)cc1F (centres unmarked) [Compound (3-2), 2-(5-chloro-1H-indol-3-yl)-4-(2,4-difluorophenyl)-4-oxo-butanoic Acid]
4 | 200 to 202 °C | Cc1ccc2[nH]cc(C(CC(=O)c3ccc(F)cc3F)C(=O)O)c2c1 (centres unmarked) [Compound (3-3), 4-(2,4-difluorophenyl)-2-(5-methyl-1H-indol-3-yl)-4-oxo-butanoic Acid]
5 | 205 to 206 °C | COc1ccc2[nH]cc(C(CC(=O)c3ccc(F)cc3F)C(=O)O)c2c1 (centres unmarked) [Compound (3-4), 4-(2,4-difluorophenyl)-2-(5-methoxy-1H-indol-3-yl)-4-oxo-butanoic Acid]
6 | 210 to 214 °C | O=C(CC(C(=O)O)c1c[nH]c2cc(F)ccc12)c1ccc(F)cc1F (centres unmarked) [Compound (4-1), 4-(2,4-difluorophenyl)-2-(6-fluoro-1H-indol-3-yl)-4-oxo-butanoic Acid]
7 | 177 to 178 °C | O=C(CC(C(=O)O)c1c[nH]c2cc(OCc3ccccc3)ccc12)c1ccc(F)cc1F (centres unmarked) [Compound (4-2), 2-(6-benzyloxy-1H-indol-3-yl)-4-(2,4-difluorophenyl)-4-oxo-butanoic Acid]
8 | 225 to 227 °C | O=C(CC(C(=O)O)c1c[nH]c2c(Cl)cccc12)c1ccc(F)cc1F (centres unmarked) [Compound (5-1), 2-(7-chloro-1H-indol-3-yl)-4-(2,4-difluorophenyl)-4-oxo-butanoic Acid]
9 | 181 to 183 °C | COc1cccc2c(C(CC(=O)c3ccc(F)cc3F)C(=O)O)c[nH]c12 (centres unmarked) [Compound (5-2), 4-(2,4-difluorophenyl)-2-(7-methoxy-1H-indol-3-yl)-4-oxo-butanoic Acid]
10 | 192 to 193 °C | Cn1cc(C(CC(=O)c2ccc(F)cc2F)C(=O)O)c2ccccc21 (centres unmarked) [Compound (6-1), 4-(2,4-difluorophenyl)-2-(1-methyl-1H-indol-3-yl)-4-oxo-butanoic Acid]
11 | 139 to 141 °C | CCCn1cc(C(CC(=O)c2ccc(C)cc2C)C(=O)O)c2ccccc21 (centres unmarked) [compound 6, 4-(2,4-Dimethylphenyl)-2-(1-propyl-1H-indol-3-yl)-4-oxo-butanoic Acid]
12 | 149 to 150 °C | O=C(CC(C(=O)O)c1c[nH]c2ccccc12)c1ccccc1 (centres unmarked) [compound #20, 4-Phenyl-2-(1H-indol-3-yl)-4-oxo-butanoic Acid]
13 | 86 to 92.7 °C | CCOc1ccc2[nH]cc(CC(=O)O)c2c1 [compound #37, 5-Ethoxy-3-indoleacetic Acid]
14 | 133.6 to 136.8 °C | CCCOc1ccc2[nH]cc(CC(=O)O)c2c1 [compound #38, 5-(1-Propoxy)-3-indoleacetic Acid]

Row | SMILES | melting point
15 | CCCCOc1ccc2cccc(CC(=O)O)c2c1 [compound #33, α-(7-Butoxy-1-naphthalenyl)-acetic Acid] | 102 to 104 °C
16 | CCCCCOc1ccc2cccc(CC(=O)O)c2c1 [compound #34, α-(7-Pentoxy-1-naphthalenyl)-acetic Acid] | 104 to 106 °C
17 | CCCCOc1ccc2[nH]cc(CC(=O)O)c2c1 [compound #39, 5-(1-Butoxy)-3-indoleacetic Acid] | 137.8 to 141.1 °C
